Consider 2 sequences from patent US10844102B2, “Peptides, compositions, and methods for stimulating subcutaneous adipogenesis” (The Regents of the University of California, priority 2014, dated 2020).

Experiment [1] relates to mammary fat pads of aged female rats. Kind of experiment: In vivo adipogenesis in mammary fat pads of aged female rats (microCT). The arrangement: species or system rat. The settings on record: eight-month-old female rats, 100 μg peptide in 100 μl collagen gel, 7 days, versus collagen only. On the procedure:
Peptides were also tested for their ability to stimulate adipogenesis in mammary fat pads of aged (8 month old) female rats in vivo. Mammary fat pads are rich in adipocyte progenitor cells.
Eight-month-old female Sprague Dawley rats (retired breeders) were injected with 100 μl collagen gel (Vitrogen) containing 100 μg peptide into the fourth right mammary fat pad, as depicted in FIG. 10. […] The collagen and peptides were injected at the top of the ROI nearest the nipple. The collagen and peptide diffuse into the fat pad following injection and active peptides target RHAMM-positive progenitor cells present in the fat pad. Collagen alone was injected into the fourth left mammary fat pad as a negative control.
Following injection of the collagen and peptide or collagen alone, animals were maintained on rat chow and water for 7 days and then euthanized. Micro-computed tomography (microCT) imaging of the […] was performed on animals using a Locus Ultra scanner (GE Healthcare, London, ON, Canada). The animals were imaged ex vivo with an X-ray tube voltage of 80 kV and a tube current of 55 mA. Nine hundred projections of data were acquired at an angular increment of 0.4 degrees around the rat in an exposure time of 16 ms. The data were then reconstructed into a 3D volume image with a voxel size of 154 μm. The subcutaneous mammary fat measured in 10×5×3 mm rectangular area (the region of interest (ROI)) below the nipple, avoiding measurement of underlying visceral fat (see the region labeled “fat pad” in FIG. 11). The amount of fat in the ROI was calculated as mass (mg) per ROI.

Experiment [2] deals with nude guinea pig. Nature of the experiment: Nude guinea pig model of adipogenesis. The settings on record: in vivo.
Experiment [3] deals with adipogenesis. Kind of experiment: Adipogenic activity of peptides and peptide fragments, assay not specified. It is filed as cell-based. On the procedure:
In the second approach, a series of truncations and alanine mutagenesis on peptide B were performed in order to identify the smallest active sequence. Fragments of peptide B were prepared and assayed for adipogenesis. First, fragments corresponding to the two halves of peptide B were prepared (KLKDENS (SEQ ID NO: 8) and SQLKSEVSK (SEQ ID NO: 13)).

The subject of experiment [4] is bone marrow mesenchymal stem cells. Nature of the experiment: Adipogenesis in mesenchymal stem cells or papillary fibroblasts, replacement of insulin. It is filed as cell-based. The settings on record: depending upon the screening assay used. On the procedure: For example, in bone marrow mesenchymal stem cells, a maximum adipogenic effect was obtained at 1-5 μg of peptide B (SEQ ID NO: 2), depending upon the screening assay used.

Experiment [5] concerns adipogenesis. Particulars: earlier reports, WO 2014/082042 and background; cited from earlier work.
The subject of experiment [6] is pre-adipocyte stem cells. Kind of experiment: Adipogenic effects in pre-adipocyte stem cells in culture. It is filed as cell-based.
Experiment [7] concerns dermis of aged rats. Kind of experiment: Rat dermal skin model of adipogenesis (injection into the dermis of aged rats). It is filed as in vivo. The settings on record: for adipogenic effects in rat skin: injected into the dermis of aged rats / rat skin.
A short description of experiment [8]: Hyaluronan binding (random phage library screen). Particulars: unbiased screen of 15-mer random phage libraries. On the procedure:
Two approaches were used to identify additional adipogenic peptides and to identify the key adipogenic sequences. […] Thus, in the first approach, an unbiased screen was performed to identify hyaluronan-binding peptides using 15-mer random phage libraries. Peptide sequences identified in this screen were sorted for: (a) their alignment to the HA binding region of RHAMM, and (b) their lack of alignment to the HA binding region of CD44.

The test system of experiment [9] is adipogenesis in vivo. Kind of experiment: Adipogenesis in vivo, model not specified.
For experiment [10] the following is noted: earlier reports, background and U.S. Pat. No. 6,271,344; cited from earlier work.

Where two headings read alike, the source gives them in different places.

Turning to “KLKDENSQLKSEVSK (listed as Homo sapiens) [peptide B]”, the “adipogenesis in vivo in mammary fat pads” value in [1] is recorded as “mammary fat pad enlargement”. Further, the “promoting adipogenesis in a nude guinea pig model” value in experiment [2] is given as “effective in promoting adipogenesis”. The adipogenic activity result in experiment [3] (assay not specified) is reported as “adipogenic activity”; in experiment [5] it was “strongly adipogenic”. Besides, the “amount of peptide giving a maximum adipogenic effect” value in experiment [4] was 1 to 5 µg. The “adipogenic effects in pre-adipocyte stem cells in culture” value in experiment [6] is given as “adipogenic effects”. Moreover, the fat accumulation entry in experiment [7] (25-50 μg of peptide per injection site, rat dermal skin model) was “induced significant fat accumulation”. In addition, the “adipogenic effects in rat skin” value in experiment [7] is listed as “adipogenic effects”.

Consider STMMSRSHKTRSHHV [peptide P15-1], for which the results for the “binding to hyaluronan (HA)” value in experiment [8] and in experiment [10] were “hyaluronan binding peptide” and “bind to hyaluronan”, respectively. Also, in experiment [9], the adipogenesis in vivo entry was “promotes adipogenesis”. Moreover, the “adipogenesis in tissue culture” value in [3] (tissue culture) was “promotes adipogenesis”. Moreover, in experiment [5], the adipogenic activity result is “is adipogenic”. For the same sequence, the “adipogenic effects in pre-adipocyte stem cells in culture” value in [6] is given as “adipogenic effects”. The “adipogenic effects in rat skin” value in experiment [7] is listed as “adipogenic effects”.
